These results are taken from patent US20170112777A1, “PROTEIN-BASED PARTICLES FOR DRUG DELIVERY” (Dana-Farber Cancer Institute, Inc., priority 2014, published 2017).

This data set concerns healthy balb/C mice. The data set is described as follows: Tolerability of intraperitoneal pirfenidone dose. The format is in vivo. As to conditions: free drug in 10% ethanol in PBS, 200 mg/kg. Here is the method:
Pirfenidone was dissolved in a 10% ethanol in PBS solution and administered intraperitoneally to healthy balb/C mice. The intraperitoneal pirfenidone dose was 200 mg/kg. […] However, the same dose was well-tolerated using albumin nanoparticles containing pirfenidone. The nanoparticles were injected twice daily for a total dose of 200 mg/kg per day for 16 days. This example highlights the ability of drug-loaded nanoparticles to slowly release drugs and lower their toxic side effects.

With `Cc1ccc(=O)n(-c2ccccc2)c1` [Pirfenidone, pirfenidone], the Tolerability result was “immediate neurological symptoms in the mice as well as death”.
